Among the data in ChEMBL document CHEMBL3886529, “PDE10a inhibitors for the treatment of type II diabetes” (2016) are IC50 values, retold here.

Structures are written as SMILES.

In this test the target is T1, cAMP and cAMP-inhibited cGMP 3',5'-cyclic phosphodiesterase 10A (Rattus norvegicus, UniProt Q9QYJ6).
T1 sequence (Q9QYJ6 whole entry): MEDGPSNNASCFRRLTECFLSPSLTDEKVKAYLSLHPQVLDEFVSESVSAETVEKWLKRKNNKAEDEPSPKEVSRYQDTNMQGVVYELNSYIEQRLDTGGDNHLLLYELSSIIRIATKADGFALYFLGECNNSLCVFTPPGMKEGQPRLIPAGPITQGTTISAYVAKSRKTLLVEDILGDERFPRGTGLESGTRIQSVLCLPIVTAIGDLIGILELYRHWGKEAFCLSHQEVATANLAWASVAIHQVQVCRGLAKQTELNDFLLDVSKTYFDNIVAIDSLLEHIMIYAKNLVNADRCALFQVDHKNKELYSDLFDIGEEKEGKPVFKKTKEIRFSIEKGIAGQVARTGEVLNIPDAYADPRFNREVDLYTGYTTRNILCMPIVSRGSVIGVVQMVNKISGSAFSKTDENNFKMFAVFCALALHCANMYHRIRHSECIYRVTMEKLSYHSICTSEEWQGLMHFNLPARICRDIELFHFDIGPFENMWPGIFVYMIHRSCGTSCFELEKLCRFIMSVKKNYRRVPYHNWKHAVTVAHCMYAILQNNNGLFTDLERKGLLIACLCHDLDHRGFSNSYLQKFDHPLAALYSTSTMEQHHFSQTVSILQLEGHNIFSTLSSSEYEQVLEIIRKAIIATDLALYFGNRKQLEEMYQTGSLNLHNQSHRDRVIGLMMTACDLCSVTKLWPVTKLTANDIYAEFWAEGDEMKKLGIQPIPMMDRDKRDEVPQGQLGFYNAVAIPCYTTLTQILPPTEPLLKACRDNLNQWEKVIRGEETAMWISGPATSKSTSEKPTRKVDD
Description: In Vitro Assay rPDE10: Rat recombinant PDE10a (rPDE10a) was expressed in Sf9 cells using a recombinant rPDE10a baculovirus construct. Cells were harvested after 48 h of infection and the rPDE10a protein was purified by metal chelate chromatography on Ni-sepharose 6FF. Tested compounds were dissolved and diluted in 100% DMSO to a concentration 100 fold of the final concentration in the assay. Compound dilutions (0.4 uL) were added in 384 well plates to 20 uL of incubation buffer (50 mM Tris pH 7.8, 8.3 mM MgCl2, 1.7 mM EGTA). 10 uL of rPDE10a enzyme in incubation buffer was added and the reaction was started by addition of 10 uL substrate to a final concentration of 60 nM cAMP and 0.008 uCi 3H-cAMP. The reaction was incubated for 60 min at rt. After incubation, the reaction was stopped with 20 uL of 17.8 mg/mL PDE SPA beads. After sedimentation of the beads during 30 min the radioactivity was measured in a Perkin Elmer Topcount scintillation counter and results were expressed as cpm. For blank values the enz.
Turning to `O=C1Nc2ccc(-c3cnc(N4CCOCC4)c4nc(CCc5ccc6ccccc6n5)cn34)cc2C1(F)F`, the IC50 was 19 nM.
As for `O=C(O)c1cc(/C=C/c2cn3ccnc(N4CCOCC4)c3n2)nc2ccccc12`, the figure is 9 nM.
Then `c1ccc2nc(OCc3cn4c(C5CCNCC5)cnc(N5CCOCC5)c4n3)ccc2c1`, with 562 nM.
